According to the supplement of paper PMC10307832:

Columns and labels:
Assay in all cases: relative viability (nuclei count vs DMSO), 5 days (fraction); higher = more cells survive
201T = test system: 201T
In short: (§1)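 After 5 days of treatment, lung cancer cells in 1536-well plates were fixed and stained in a single step (final 0.05% Triton X-100, 1% formaldehyde, 1 ug/ml Hoechst) and their nuclei counted on 4× images. Treatment had been applied by pin tool the day after seeding as one drug alone or as a fixed anchor-drug dose with five library-drug doses (not always all listed) in √10 steps. Relative viability is the nuclei count of treated wells divided by that of vehicle wells, and values are medians of duplicate plates.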

BEN = test system: BEN
In short: as §1

CAL-12T = test system: CAL-12T
In short: as §1

HCC-827 = test system: HCC-827
In short: as §1

LCLC-103H = test system: LCLC-103H
In short: as §1

LCLC-97TM1 = test system: LCLC-97TM1
In short: as §1

LXF-289 = test system: LXF-289
In short: as §1

NCI-H1395 = test system: NCI-H1395
In short: as §1

NCI-H1437 = test system: NCI-H1437
In short: as §1

NCI-H1792 = test system: NCI-H1792
In short: as §1

NCI-H1793 = test system: NCI-H1793
In short: as §1

NCI-H1944 = test system: NCI-H1944
In short: as §1

NCI-H2087 = test system: NCI-H2087
In short: as §1

NCI-H2228 = test system: NCI-H2228
In short: as §1

NCI-H2405 = test system: NCI-H2405
In short: as §1

NCI-H3122 = test system: NCI-H3122
In short: as §1

NCI-H322M = test system: NCI-H322M
In short: as §1

NCI-H647 = test system: NCI-H647
In short: as §1

NCI-H727 = test system: NCI-H727
In short: as §1

RERF-LC-KJ = test system: RERF-LC-KJ
In short: as §1

SK-LU-1 = test system: SK-LU-1
In short: as §1

Which relative viability (201T; first compound 0.01 µM) does the source give for `O=c1cc(N2CCOCC2)oc2c(-c3cccc4c3sc3ccccc34)cccc12` + C[C@]1(O)C[C@@H](c2nc(-c3ccc4ccc(-c5ccccc5)nc4c3)c3c(N)nccn32)C1 [Linsitinib] (partner 1 µM) here?
Its relative viability is 1.04.

And the relative viability (201T; first compound 0.03162 µM)?
Its relative viability is 1.03.

And the relative viability (201T; first compound 0.1 µM)?
Its relative viability is 1.03.

What about the relative viability (201T; first compound 0.3162 µM) of the same molecule?
The relative viability was 1.01.

And the relative viability (201T; first compound 1 µM)?
The relative viability was 1.05.

And the relative viability (BEN; first compound 0.01 µM)?
The relative viability was 0.887.

And the relative viability (BEN; first compound 0.03162 µM)?
Its relative viability is 0.916.

What about the relative viability (BEN; first compound 0.1 µM) of the same molecule?
The relative viability was 0.978.

And the relative viability (BEN; first compound 0.3162 µM)?
The relative viability was 1.02.

What about the relative viability (BEN; first compound 1 µM) of the same molecule?
The relative viability was 0.948.

What about the relative viability (CAL-12T; first compound 0.01 µM) of the same molecule?
The relative viability was 0.851.

What about the relative viability (CAL-12T; first compound 0.03162 µM) of the same molecule?
The relative viability was 0.809.

What about the relative viability (CAL-12T; first compound 0.1 µM) of the same molecule?
Its relative viability is 0.842.

What about the relative viability (CAL-12T; first compound 0.3162 µM) of the same molecule?
The relative viability was 0.873.

What about the relative viability (CAL-12T; first compound 1 µM) of the same molecule?
Its relative viability is 0.879.

And the relative viability (HCC-827; first compound 0.01 µM)?
The relative viability was 0.906.

What about the relative viability (HCC-827; first compound 0.03162 µM) of the same molecule?
Its relative viability is 0.977.

What about the relative viability (HCC-827; first compound 0.1 µM) of the same molecule?
Its relative viability is 0.941.

What about the relative viability (HCC-827; first compound 0.3162 µM) of the same molecule?
The relative viability was 0.941.

What about the relative viability (HCC-827; first compound 1 µM) of the same molecule?
Its relative viability is 0.891.

What about the relative viability (LCLC-103H; first compound 0.01 µM) of the same molecule?
The relative viability was 1.09.

And the relative viability (LCLC-103H; first compound 0.03162 µM)?
Its relative viability is 1.04.

What about the relative viability (LCLC-103H; first compound 0.1 µM) of the same molecule?
The relative viability was 1.03.

And the relative viability (LCLC-103H; first compound 0.3162 µM)?
Its relative viability is 1.08.

What about the relative viability (LCLC-103H; first compound 1 µM) of the same molecule?
Its relative viability is 0.978.

And the relative viability (LCLC-97TM1; first compound 0.01 µM)?
Its relative viability is 0.217.

What about the relative viability (LCLC-97TM1; first compound 0.03162 µM) of the same molecule?
Its relative viability is 0.203.

And the relative viability (LCLC-97TM1; first compound 0.3162 µM)?
Its relative viability is 0.198.

And the relative viability (LCLC-97TM1; first compound 1 µM)?
The relative viability was 0.18.

And the relative viability (LXF-289; first compound 0.01 µM)?
Its relative viability is 0.983.

What about the relative viability (LXF-289; first compound 0.03162 µM) of the same molecule?
The relative viability was 0.927.

And the relative viability (LXF-289; first compound 0.1 µM)?
Its relative viability is 0.978.

And the relative viability (LXF-289; first compound 0.3162 µM)?
The relative viability was 0.978.

What about the relative viability (LXF-289; first compound 1 µM) of the same molecule?
The relative viability was 0.897.

And the relative viability (NCI-H1395; first compound 0.01 µM)?
The relative viability was 1.21.

And the relative viability (NCI-H1395; first compound 0.03162 µM)?
The relative viability was 1.11.

What about the relative viability (NCI-H1395; first compound 0.1 µM) of the same molecule?
The relative viability was 1.03.

And the relative viability (NCI-H1395; first compound 0.3162 µM)?
Its relative viability is 1.12.

What about the relative viability (NCI-H1395; first compound 1 µM) of the same molecule?
The relative viability was 1.2.

And the relative viability (NCI-H1437; first compound 0.01 µM)?
The relative viability was 1.01.

And the relative viability (NCI-H1437; first compound 0.03162 µM)?
The relative viability was 1.11.

What about the relative viability (NCI-H1437; first compound 0.1 µM) of the same molecule?
The relative viability was 1.09.

What about the relative viability (NCI-H1437; first compound 0.3162 µM) of the same molecule?
Its relative viability is 1.

And the relative viability (NCI-H1437; first compound 1 µM)?
The relative viability was 0.979.

What about the relative viability (NCI-H1792; first compound 0.01 µM) of the same molecule?
Its relative viability is 0.514.

And the relative viability (NCI-H1792; first compound 0.03162 µM)?
The relative viability was 0.513.

And the relative viability (NCI-H1792; first compound 0.1 µM)?
Its relative viability is 0.564.

And the relative viability (NCI-H1792; first compound 0.3162 µM)?
The relative viability was 0.502.

And the relative viability (NCI-H1792; first compound 1 µM)?
The relative viability was 0.574.

What about the relative viability (NCI-H1793; first compound 0.01 µM) of the same molecule?
The relative viability was 0.809.

And the relative viability (NCI-H1793; first compound 0.03162 µM)?
The relative viability was 0.872.

And the relative viability (NCI-H1793; first compound 0.1 µM)?
Its relative viability is 0.517.

What about the relative viability (NCI-H1793; first compound 0.3162 µM) of the same molecule?
The relative viability was 0.813.

What about the relative viability (NCI-H1793; first compound 1 µM) of the same molecule?
The relative viability was 0.68.

What about the relative viability (NCI-H1944; first compound 0.01 µM) of the same molecule?
Its relative viability is 1.16.

What about the relative viability (NCI-H1944; first compound 0.03162 µM) of the same molecule?
Its relative viability is 1.19.

What about the relative viability (NCI-H1944; first compound 0.1 µM) of the same molecule?
The relative viability was 1.19.

And the relative viability (NCI-H1944; first compound 0.3162 µM)?
The relative viability was 1.33.

And the relative viability (NCI-H1944; first compound 1 µM)?
Its relative viability is 1.16.

What about the relative viability (NCI-H2087; first compound 0.01 µM) of the same molecule?
The relative viability was 1.04.

What about the relative viability (NCI-H2087; first compound 0.03162 µM) of the same molecule?
Its relative viability is 1.12.

And the relative viability (NCI-H2087; first compound 0.1 µM)?
Its relative viability is 0.899.

And the relative viability (NCI-H2087; first compound 0.3162 µM)?
The relative viability was 0.899.

What about the relative viability (NCI-H2087; first compound 1 µM) of the same molecule?
Its relative viability is 0.985.

And the relative viability (NCI-H2228; first compound 0.03162 µM)?
The relative viability was 0.571.

And the relative viability (NCI-H2228; first compound 0.1 µM)?
Its relative viability is 0.539.

What about the relative viability (NCI-H2228; first compound 0.3162 µM) of the same molecule?
The relative viability was 0.904.

What about the relative viability (NCI-H2228; first compound 1 µM) of the same molecule?
The relative viability was 0.74.

And the relative viability (NCI-H2405; first compound 0.01 µM)?
Its relative viability is 0.972.

And the relative viability (NCI-H2405; first compound 0.03162 µM)?
The relative viability was 1.01.

What about the relative viability (NCI-H2405; first compound 0.1 µM) of the same molecule?
Its relative viability is 1.01.

And the relative viability (NCI-H2405; first compound 0.3162 µM)?
Its relative viability is 0.924.

What about the relative viability (NCI-H2405; first compound 1 µM) of the same molecule?
Its relative viability is 0.955.

What about the relative viability (NCI-H3122; first compound 0.01 µM) of the same molecule?
Its relative viability is 1.01.

What about the relative viability (NCI-H3122; first compound 0.03162 µM) of the same molecule?
Its relative viability is 0.977.

What about the relative viability (NCI-H3122; first compound 0.1 µM) of the same molecule?
Its relative viability is 1.12.

What about the relative viability (NCI-H3122; first compound 0.3162 µM) of the same molecule?
The relative viability was 1.03.

What about the relative viability (NCI-H3122; first compound 1 µM) of the same molecule?
Its relative viability is 0.944.

And the relative viability (NCI-H322M; first compound 0.01 µM)?
Its relative viability is 0.913.

And the relative viability (NCI-H322M; first compound 0.03162 µM)?
Its relative viability is 0.915.

And the relative viability (NCI-H322M; first compound 0.3162 µM)?
The relative viability was 0.993.

What about the relative viability (NCI-H322M; first compound 1 µM) of the same molecule?
The relative viability was 0.83.

What about the relative viability (NCI-H647; first compound 0.01 µM) of the same molecule?
Its relative viability is 1.02.

What about the relative viability (NCI-H647; first compound 0.03162 µM) of the same molecule?
The relative viability was 1.24.

And the relative viability (NCI-H647; first compound 0.1 µM)?
Its relative viability is 1.22.

And the relative viability (NCI-H647; first compound 0.3162 µM)?
Its relative viability is 1.09.

What about the relative viability (NCI-H647; first compound 1 µM) of the same molecule?
Its relative viability is 0.954.

And the relative viability (NCI-H727; first compound 0.01 µM)?
Its relative viability is 0.29.

What about the relative viability (NCI-H727; first compound 0.03162 µM) of the same molecule?
Its relative viability is 0.238.

And the relative viability (NCI-H727; first compound 0.1 µM)?
Its relative viability is 0.243.

And the relative viability (NCI-H727; first compound 0.3162 µM)?
The relative viability was 0.227.

What about the relative viability (NCI-H727; first compound 1 µM) of the same molecule?
The relative viability was 0.283.

What about the relative viability (RERF-LC-KJ; first compound 0.01 µM) of the same molecule?
Its relative viability is 0.908.

And the relative viability (RERF-LC-KJ; first compound 0.03162 µM)?
The relative viability was 0.937.

And the relative viability (RERF-LC-KJ; first compound 0.1 µM)?
The relative viability was 0.914.

And the relative viability (RERF-LC-KJ; first compound 0.3162 µM)?
The relative viability was 0.869.

And the relative viability (RERF-LC-KJ; first compound 1 µM)?
Its relative viability is 0.874.

And the relative viability (SK-LU-1; first compound 0.03162 µM)?
Its relative viability is 1.25.

What about the relative viability (SK-LU-1; first compound 0.1 µM) of the same molecule?
The relative viability was 1.12.

And the relative viability (SK-LU-1; first compound 0.3162 µM)?
Its relative viability is 1.19.

What about the relative viability (SK-LU-1; first compound 1 µM) of the same molecule?
The relative viability was 0.969.
